The target of the assay is NK1 receptor (Homo sapiens, UniProt P25103). The experiment in a line: NK1 receptor binding: inhibition of Substance P binding, Ki by Chang-Prusoff equation. As to conditions: affinity for the NK1 receptor. From the text: The in vitro and in vivo NK1, NK2 and NK3 activities of the compounds of Formula I can be determined by various procedures known in the art, such as a test for their ability to inhibit the activity of the NK1 agonist Substance P. The percent inhibition of neurokinin agonist activity is the difference between the percent of maximum specific binding (“MSB”) and 100%. The percent of MSB is defined by the following equation, wherein “dpm” represents “disintegrations per minute”:
[formula] The concentration at which the compound produces 50% inhibition of binding is then used to determine an inhibition constant (“Ki”) using the Chang-Prusoff equation.
The activities (potencies) for the compounds of the invention are determined by measuring their Ki values. […] Even more preferred are compounds having average Ki values of from 0.1 nM to about 5 nM for the NK1 receptor. Especially preferred compounds have […], average Ki values of from 0.1 nM to about 1 nM. Even more especially preferred compounds have NK1 average Ki values of from 0.1 nM to about 0.3 nM.

Each structure is given as a SMILES string.

Sequence of NK1 receptor (P25103 whole entry, species assumed): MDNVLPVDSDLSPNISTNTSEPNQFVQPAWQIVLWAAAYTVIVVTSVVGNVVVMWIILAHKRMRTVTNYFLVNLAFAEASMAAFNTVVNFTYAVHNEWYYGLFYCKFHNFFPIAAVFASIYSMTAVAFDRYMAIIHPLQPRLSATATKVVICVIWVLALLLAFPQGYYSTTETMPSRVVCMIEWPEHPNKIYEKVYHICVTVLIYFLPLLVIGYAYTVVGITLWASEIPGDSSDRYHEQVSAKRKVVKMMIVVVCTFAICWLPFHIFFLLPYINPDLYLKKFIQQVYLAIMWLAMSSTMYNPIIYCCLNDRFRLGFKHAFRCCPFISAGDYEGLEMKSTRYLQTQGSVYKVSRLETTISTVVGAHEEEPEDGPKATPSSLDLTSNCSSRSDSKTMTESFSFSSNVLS

Turning to `COC[C@@]1(n2cnnc2)CC[C@@](CO[C@H](C)c2cc(C(F)(F)F)cc(C(F)(F)F)c2)(c2ccccc2)NC1` [Compound 14], the affinity corresponds to a Ki of 0.1 nM. This lies in the sub-nanomolar range. For `C[C@@H](OC[C@@]1(c2ccccc2)CC[C@](CO)(n2cn[nH]c2=O)CN1)c1cc(C(F)(F)F)cc(C(F)(F)F)c1` [Compound 23], the Ki was 0.12 nM. The value for `C[C@@H](OC[C@@]1(c2ccccc2)CC[C@](C#N)(N2CCC2=O)CN1)c1cc(C(F)(F)F)cc(C(F)(F)F)c1` [Compound 9] was 0.18 nM; that for `CCC(=O)[C@]1(n2cn[nH]c2=O)CC[C@@](CO[C@H](C)c2cc(C(F)(F)F)cc(C(F)(F)F)c2)(c2ccccc2)NC1` [Compound 19] was 0.1 nM.

`C[C@@H](OC[C@@]1(c2ccccc2)CC[C@@](CO)(n2cnnc2)CN1)c1cc(C(F)(F)F)cc(C(F)(F)F)c1` [Compound 12]: the Ki amounted to 0.05 nM. Compared with the last molecule, the Ki is about 2-fold lower. Next, `COC[C@]1(N2CC(=O)NC2=O)CC[C@@](CO[C@H](C)c2cc(C(F)(F)F)cc(C(F)(F)F)c2)(c2ccccc2)NC1` [Compound 20]: 0.11 nM.

Molecule `C/C(=N\O)[C@]1(n2cn[nH]c2=O)CC[C@@](CO[C@H](C)c2cc(C(F)(F)F)cc(C(F)(F)F)c2)(c2ccccc2)NC1` [Compound 54] had a Ki of 0.12 nM. `CCNC(=O)C[C@]1(n2cn[nH]c2=O)CC[C@@](CO[C@H](C)c2cc(C(F)(F)F)cc(C(F)(F)F)c2)(c2ccccc2)NC1` [Compound 16] had a Ki of 0.13 nM. The value for `CC(=O)C[C@]1(n2cn[nH]c2=O)CC[C@@](CO[C@H](C)c2cc(C(F)(F)F)cc(C(F)(F)F)c2)(c2ccccc2)NC1` [Compound 30] was 0.54 nM; that for `C[C@@H](OC[C@@]1(c2ccccc2)CC[C@](C#N)(n2cn[nH]c2=O)CN1)c1cc(C(F)(F)F)cc(C(F)(F)F)c1` [Compound 42] was 0.28 nM.

On to `C[C@@H](OC[C@@]1(c2ccccc2)CC[C@](CC(N)=O)(n2cn[nH]c2=O)CN1)c1cc(C(F)(F)F)cc(C(F)(F)F)c1` [Compound 29], for which the affinity, expressed as Ki, was 0.11 nM. `C[C@@H](OC[C@@]1(c2ccccc2)CC[C@](C#N)(N2CCOC2=O)CN1)c1cc(C(F)(F)F)cc(C(F)(F)F)c1` [Compound 2] yielded a Ki of 0.12 nM. The value for `C[C@@H](OC[C@@]1(c2ccccc2)CC[C@@](C(N)=O)(n2cnnc2)CN1)c1cc(C(F)(F)F)cc(C(F)(F)F)c1` [Compound 10] was 0.1 nM.

One may read the Ki as a dissociation constant, usually derived from enzyme kinetics or from competition with a known ligand. A lower Ki goes with tighter binding.

(Values after patent US8754216B2, “NK1 antagonists” (OPKO Health, Inc., priority 2004, dated 2014).)
